The text below walks through data of PubChem BioAssay (NCI).

SMILES strings stand for the structures. “And” between values parts separate entries of the source, which are not always exact repeats. Equal values may be shown once.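 Cultured in 96-well plates, cells were exposed to test compound for 48 hours across five concentrations. At the GI50, growth is halved. Definition used: TGI = concentration required for complete inhibition of growth.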 Some results are limits rather than exact numbers.

Test systems include LOX IMVI melanoma; HCC-2998 colon; OVCAR-5 ovarian; DMS 273 small cell lung; SF-295 CNS; DLD-1 colon; MALME-3M melanoma; HCT-116 colon; COLO 205 colon; DU-145 prostate.
What all share (assay): NCI anticancer screen, dose series, 48 h

Turning to `CCCC(O)c1cn(-c2cccc(S(=O)(=O)O)c2)nn1` (configuration not stated), the TGI in the assay on LOX IMVI melanoma, in the assay with HCC-2998 colon, in the assay on OVCAR-5 ovarian, in the assay on DMS 273 small cell lung, in the assay on SF-295 CNS and with DLD-1 colon was over 100 µM throughout. The TGI in the assay with MALME-3M melanoma, in the assay with HCT-116 colon and in the assay on COLO 205 colon was over 100 µM in each case.

For `COc1ccc(-c2cc3ccccc3[nH]c2=O)cc1OC`, the TGI with LOX IMVI melanoma, with HCC-2998 colon, in the assay with OVCAR-5 ovarian, with DMS 273 small cell lung, in the assay on SF-295 CNS and in the assay on DLD-1 colon was over 100 µM each time. Moreover, the TGI in the assay with MALME-3M melanoma, in the assay on HCT-116 colon and in the assay on COLO 205 colon was over 100 µM throughout.

Regarding `CS(=O)(=O)c1ccc(COP(N)(=O)N(CCCl)CCCl)cc1` (configuration not stated), the TGI in the assay with LOX IMVI melanoma, in the assay on HCC-2998 colon, in the assay on OVCAR-5 ovarian, with DMS 273 small cell lung, in the assay with SF-295 CNS and with DLD-1 colon was over 100 µM each time. Further, the TGI in the assay with MALME-3M melanoma, with HCT-116 colon and in the assay on COLO 205 colon was over 100 µM each time.

Consider `CN1CCN=C1c1nnn(-c2ccc([N+](=O)[O-])cc2)c1-c1ccccc1`, for which the TGI in the assay with LOX IMVI melanoma, in the assay with HCC-2998 colon, with OVCAR-5 ovarian, in the assay on DMS 273 small cell lung, in the assay on SF-295 CNS and with DLD-1 colon was over 100 µM in each case. Also, the TGI with MALME-3M melanoma, with HCT-116 colon and in the assay with COLO 205 colon was over 100 µM in each case.

As to `CCC(C)(O)c1cn(-c2ccc(Cl)cc2)nn1` (configuration not stated), the TGI in the assay with LOX IMVI melanoma, in the assay on HCC-2998 colon, in the assay on OVCAR-5 ovarian, with DMS 273 small cell lung, in the assay on SF-295 CNS and in the assay with DLD-1 colon was over 100 µM each time. Besides, the TGI in the assay with MALME-3M melanoma, with HCT-116 colon and in the assay on COLO 205 colon was over 100 µM in each case.

Turning to `O=C1C(Cl)=C(Cl)C(=O)N1c1ccc(Cl)c(Cl)c1Cl`, the TGI with LOX IMVI melanoma, with HCC-2998 colon, in the assay on OVCAR-5 ovarian, with DMS 273 small cell lung, in the assay with SF-295 CNS and in the assay on DLD-1 colon was over 100 µM throughout. For the same compound, the TGI in the assay with MALME-3M melanoma, in the assay with HCT-116 colon and in the assay with COLO 205 colon was over 100 µM throughout.

Turning to `COC(=O)/C(C#N)=C1\CCC(OC)N1C` (configuration not stated), the TGI in the assay with LOX IMVI melanoma, in the assay with HCC-2998 colon, in the assay on OVCAR-5 ovarian, in the assay with DMS 273 small cell lung, in the assay on SF-295 CNS and with DLD-1 colon was over 100 µM each time. Also, the TGI with MALME-3M melanoma, in the assay on HCT-116 colon and in the assay on COLO 205 colon was over 100 µM throughout.

As for `Cc1ccc2oc(=O)c3c(O)c4cccc(OC5OC(C)C6O[C@@H](c7ccccc7)OC6C5OC5OC(C)C(O)C(O)C5O)c4c4oc(=O)c1c2c34` (some centres not stated), the GI50 is 0.0293 µM and 0.0483 µM in the assay with LOX IMVI melanoma; 0.0747 µM in the assay with HCC-2998 colon; 0.218 µM in the assay on OVCAR-5 ovarian; 0.0449 µM in the assay with SF-295 CNS; 0.126 µM in the assay on MALME-3M melanoma; 0.0257 µM in the assay on HCT-116 colon. The GI50 with COLO 205 colon was 0.0807 µM. The TGI is 0.538 µM and 1.51 µM with LOX IMVI melanoma; 1.72 µM with HCC-2998 colon; 1.13 µM and 2.7 µM in the assay with OVCAR-5 ovarian; 1.09 µM in the assay on DMS 273 small cell lung; 0.523 µM and 1.56 µM in the assay on SF-295 CNS; 6.08 µM in the assay on DLD-1 colon. Further, the TGI is 1.58 µM and 2.52 µM in the assay on MALME-3M melanoma; 1.27 µM in the assay with DU-145 prostate.

As for `O=C1OC(=O)C23CSCC12C1C=CC3O1` (configuration not stated), the TGI in the assay on LOX IMVI melanoma, in the assay on HCC-2998 colon, with OVCAR-5 ovarian, with DMS 273 small cell lung, in the assay on SF-295 CNS and with DLD-1 colon was over 100 µM in each case. Moreover, the TGI with MALME-3M melanoma, in the assay on HCT-116 colon and in the assay with COLO 205 colon was over 100 µM throughout.

On to `CC1=C(CO)C(=O)O[C@@H]([C@@H](C)[C@H]2CC[C@H]3[C@@H]4C[C@H]5O[C@]56[C@@H](O)C=CC(=O)[C@]6(C)[C@H]4CC[C@]23C)C1`, for which the GI50 was 0.172 µM in the assay on LOX IMVI melanoma and 0.294 µM in the assay with DU-145 prostate. Also, the TGI with LOX IMVI melanoma was determined as 0.547 µM; in the assay on HCC-2998 colon, 1.56 µM; with OVCAR-5 ovarian it was 2.64 µM; in the assay with DMS 273 small cell lung, 1.53 µM; in the assay with SF-295 CNS, 3 µM; with DLD-1 colon, 1.03 µM. Also, the TGI was found to be 0.826 µM with MALME-3M melanoma, 0.538 µM in the assay on HCT-116 colon, 0.81 µM in the assay with COLO 205 colon and 0.91 µM in the assay with DU-145 prostate.

In the case of `O=[N+]([O-])c1cc(/C=N\NS(=O)(=O)c2ccc(Cl)cc2)c(O)c([N+](=O)[O-])c1`, the TGI in the assay on LOX IMVI melanoma was over 100 µM; in the assay with HCC-2998 colon, over 100 µM; with OVCAR-5 ovarian, over 100 µM; in the assay on DMS 273 small cell lung, 73.3 µM; in the assay with SF-295 CNS, over 100 µM; in the assay on DLD-1 colon it was over 100 µM. In addition, the values for the TGI in the assay with MALME-3M melanoma, in the assay with HCT-116 colon and in the assay on COLO 205 colon were over 100 µM, over 100 µM and 31 µM, respectively.

As for `O=C(c1ccccc1)c1nnn(Cc2ccccc2Cn2nnc(C(=O)c3ccccc3)c2C(=O)c2ccccc2)c1C(=O)c1ccccc1`, the TGI with LOX IMVI melanoma, with HCC-2998 colon, in the assay with OVCAR-5 ovarian, with DMS 273 small cell lung, with SF-295 CNS and with DLD-1 colon was over 100 µM in each case. The TGI in the assay with MALME-3M melanoma, with HCT-116 colon and with COLO 205 colon was over 100 µM throughout.
